Results from US10668056B2, “Pharmaceutical composition comprising indole derivatives, process for preparation and use thereof” (VIVOLUX AB, priority 2015, dated 2020).

Experiments:
HCT116 (Colon carcinoma) = assay: FMCA cytotoxicity, HCT116; assay type: cell-based, human; conditions: Homo sapiens, HCT-116, 72 h
Procedure: (§1) The inventors also set out to characterize activity of the compounds A, B and C in cell lines representing cancer of different origin. The specific assays used and the conclusions from the mechanistic evaluation have previously been described in detail (Zhang et al. 2014). Compounds A, B and C (See FIG. 4) were evaluated for cytotoxicity expressed as survival index (SI) in six human tumor cell lines using the cell based fluorometric micro culture cytotoxicity assay (FMCA) as previously described in detail (Lindhagen et al, 2008). The method is based on measurement of fluorescent fluorescein, generated from hydrolysis of FDA by viable cells with intact plasma membrane. The fluorescence is proportional to the number of intact viable cells.
(§2) The cell lines were cultivated in the respective cell medium recommended by the provider. The medium was supplemented with 10% heat-inactivated fetal bovine serum, 2 mmol/L L-glutamine, 100 μg/mL streptomycin and 100 U/mL penicillin (all from Sigma-Aldrich). The cell line was cultured at 37° C. in a humidified atmosphere containing 5% CO2.
(§3) FMCA analysis in brief, 2500 cells per well were seeded into 384-well microplates and incubated over night before treatment with compounds. Compounds were added using acoustic liquid transfer (Echo 550, LabCyte). The plates were incubated at 37° C. for 72 h, and then washed and FDA was added to the wells followed by 50 min of incubation at 37° C. The fluorescence, which is proportional to the number of living cells in each well, was measured at 485/520 nm in a Fluoroskan instrument (Labsystems, GMI, Ramsey, Minn.). Cell survival is presented as Survival Index (SI), defined as the fluorescence value in the compound-treated wells analysed as percentage of the value in the control wells, with blank values subtracted. Quality criteria included a signal/blank ratio >10 and a coefficient of variation (CV) in control and blank wells <30%. Graph Pad Prism (San Diego, Calif., USA). All experiments were performed twice, and each concentration was evaluated in quadruplicates in each experiment. […]

RKO (Colon carcinoma) = assay: FMCA cytotoxicity, RKO; assay type: cell-based, human; conditions: Homo sapiens, 72 h
Procedure: as §1, §2, §3

[1] = test system: HeLa (Cervix Adenocarcinoma); assay: FMCA cytotoxicity, HeLa; assay type: cell-based, human; conditions: Homo sapiens, 72 h
Procedure: as §1, §2, §3

[2] = test system: HepG2 (Hepatocellular Carcinoma); assay: FMCA cytotoxicity, HepG2; assay type: cell-based, human; conditions: Homo sapiens, 72 h
Procedure: as §1, §2, §3

[3] = test system: CCRF-CEM (Acute lymphoblastic leukemia); assay: FMCA cytotoxicity, CCRF-CEM; assay type: cell-based, human; conditions: Homo sapiens, 72 h
Procedure: as §1, §2, §3

[4] = test system: THP-1 (Acute Monocytic Leukemia); assay: FMCA cytotoxicity, THP-1; assay type: cell-based, human; conditions: Homo sapiens, 72 h
Procedure: as §1, §2, §3

[5] = test system: six human tumor cell lines; assay: FMCA cytotoxicity, six human tumor cell lines (overall); assay type: cell-based; conditions: Table 6 and FIG. 4
Procedure: as §1, §2, §3

How did the IC50 (HCT116 (Colon carcinoma)) turn out when Cc1cccc2c1[nH]c1nc(NN=C(CC(C)(C)C)c3ccccn3)nnc12 [Compound C, 2-(3,3-dimethyl-N-{6-methyl-5H-[1,2,4]triazino[5,6-b]indole-3-yl}butanehydrazonoyl)pyridine] was run?
Its IC50 is ~1 µM.

And the IC50 (RKO (Colon carcinoma))?
The IC50 was < 0.25 µM.

And the IC50 [1]?
Its IC50 is ~10 µM.

And the IC50 [2]?
Its IC50 is < 0.25 µM.

What about the IC50 [3] of the same molecule?
Its IC50 is < 0.25 µM.

What about the IC50 [4] of the same molecule?
The IC50 was < 0.25 µM.

And the “activity on cancer cell lines” value [5]?
The value was “strong activity”.

CC/C(=N\Nc1nnc2c(n1)[nH]c1c(C)cccc12)c1ccccn1 [Compound B, 2-[(1E)-1-(2-{6-methyl-5H-[1,2,4]triazino[5,6-b]indole-3-yl}hydrazin-1-ylidene)propyl]pyridine] was tested. Which IC50 (HCT116 (Colon carcinoma)) did it give?
The IC50 was ~1 µM.

What about the IC50 (RKO (Colon carcinoma)) of the same molecule?
Its IC50 is < 0.25 µM.

What about the IC50 [1] of the same molecule?
Its IC50 is ~20 µM.

And the IC50 [2]?
The IC50 was < 0.25 µM.

And the IC50 [3]?
Its IC50 is < 0.25 µM.

And the IC50 [4]?
Its IC50 is < 0.25 µM.

And the “activity on cancer cell lines” value [5]?
Its value is “strong activity”.
